How the values were obtained:
[1] = Metabolic stability assay with pooled mouse liver microsomes; type: in vitro ADME; details: 5 μM compound, 15 min, 0.5 mg/ml pooled mouse liver microsomes, LC/MS
Procedure: Pooled liver microsomes isolated from male CD-1 mice were purchased from BD Biosciences (San Jose, CA, USA). Metabolic stability was calculated by measuring the percentage of 5 μM of each test compound remaining after 15 min incubation with 0.5 mg/ml liver microsomes at 37 °C. Compounds were detected by LC/MS using a Xevo quadrupole time-of-flight mass spectrometer and an ACQUITY ultra-performance LC (UPLC) system (Waters Inc., Milford, MA, USA) to determine relative peak areas of each parent compound.

[2] = Dose tolerance studies / MTD in mice; details: NOD/SCID, mouse, in vivo, po
Procedure: NOD/SCID mice were administered FV-162 (30 mg/kg daily, 7 days/week) in a 5% DMSO, 20% Cremophor vehicle by oral gavage or ONX-0912 (30 mg/kg daily, 7 days/week) in a 5% DMSO, 20% Cremophor vehicle by oral gavage for a week. Mice were monitored for changes in body weight, behavior, and physical appearance.

[3] = system: MM.1S human myeloma cells; assay: Subcutaneous MM.1S myeloma xenograft model; type: in vivo, NOD/SCID mice; details: for tumor burden compared with vehicle control: P<0.01 by day 24, P<0.001 after 27 days
Procedure: Human MM.1S myeloma cells (5 × 10^6) were injected subcutaneously into 6–8-week-old female NOD/SCID mice (10 mice per group). When tumors were palpable, mice were administered vehicle by oral gavage (5% DMSO, 20% Cremophor; once daily × 3 weeks), carfilzomib intravenously (5 mg/kg, once daily on days 1 and 2 of each week × 3 weeks), ONX-0912 by oral gavage (30 mg/kg, once daily on days 1 and 2 of each week × 3 weeks), or FV-162 by oral gavage (30 mg/kg or 100 mg/kg, once daily × 3 weeks). Over time, tumor volume (tumor length × width^2 × 0.5236) was measured with calipers (Control Company, Friendswood, TX, USA), and mouse body weight was monitored.

[4] = Pharmacokinetic study in NOD/SCID mice; type: in vivo; details: plasma, mouse; for bioavailability: 25 mg/kg p.o. vs 5 mg/kg i.v.
Procedure: NOD/SCID mice were administered FV-162 or ONX-0912 at doses of 5 mg/kg intravenously or 25 mg/kg by oral gavage in a 12.5% ethanol, 12.5% Tween-80 vehicle (3 mice per group). Venous blood samples (20–50 μl) were collected at 5, 15, 30 min, and 1, 2, and 4 h postdose. Plasma was separated from whole blood by centrifugation and stored at −20 °C until analysis. […] Venous blood samples (20–50 μl) were collected at 5, 10, 30, and 60 min postdose. Plasma was separated from whole blood by centrifugation and stored at −20 °C until analysis. The Cmax, its associated time (Tmax), the terminal half-life (t1/2), area under the plasma concentration–time curve (AUC), clearance (CL), and volume of distribution (Vd) were evaluated using Pheonix WinNonlin 6.2.1 (Princeton, NJ, USA), and relative oral bioavailability (F%) values were calculated as follows: F%=AUCoral gavage/AUCintravenous × 100.

[5] = Pharmacokinetic study in Sprague-Dawley rats; type: in vivo; details: rat; for bioavailability: 40 mg/kg p.o. vs 5 mg/kg i.v.
[6] = system: primary CD138+ myeloma cells; assay: Annexin V flow cytometry viability of primary bone marrow mononuclear cells, myeloma fraction; type: cell-based, human
Procedure: Human multiple myeloma cell lines 8226, H929, JJN3, KMH11, KMS11, KMS18, LP1, MM.1 S, OPM2, and U266 were grown in Iscove's modified Dulbecco's medium (IMDM). Cell lines were authenticated with short tandem repeat method in September 2011. In addition, cell lines were continually monitored by morphological inspection. Primary mononuclear cells were isolated from peripheral blood or bone marrow samples from multiple myeloma patients at the Princess Margaret Cancer Centre (Toronto, ON, Canada) by Ficoll density gradient centrifugation and cultured in IMDM. All cell culture media were obtained from the Ontario Cancer Institute Tissue Culture Media Facility (Toronto, ON, Canada) and were supplemented with 10% fetal calf serum, 100 μg/ml penicillin, and 100 μg/ml streptomycin (Hyclone, Logan, UT, USA). […]
Cellular viability was primarily assessed by MTS assay according to the manufacturer's instructions (Promega, Madison, WI, USA). […] Cell viability was independently confirmed by reading the optical density at 490 nm and by exclusion of trypan blue stain (Invitrogen, Burlington, ON, Canada). Viability of primary mononuclear cells was determined by Annexin V–fluorescein isothiocyanate and propidium iodide co-staining (Biovision Research Products, Mountain View, CA, USA) using flow cytometry according to the manufacturer's instructions after 48 h of treatment with inhibitors or vehicle control.

[7] = male, Sprague-Dawley, plasma, iv, 5 mg/kg i.v.
[8] = male, Sprague-Dawley, plasma, iv, 5 mg/kg i.v., read-out: AUC (converted)
[9] = male, Sprague-Dawley, plasma, iv, 5 mg/kg i.v., read-out: Cmax
[10] = male, Sprague-Dawley, plasma, po, 40 mg/kg p.o.
[11] = male, Sprague-Dawley, plasma, po
[12] = male, Sprague-Dawley, plasma, 40 mg/kg oral, read-out: AUC (as printed in text) (converted)
[13] = male, Sprague-Dawley, plasma, 40 mg/kg oral, read-out: Cmax (as printed in text)

| SMILES | percentage of parent compound remaining [1] | MTD [2] | AUC ([4]; iv, 5 mg/kg i.v.) | Cmax ([4]; iv, 5 mg/kg i.v.) | Tmax ([4]; iv, 5 mg/kg i.v.) | Vd ([4]; iv, 5 mg/kg i.v.) | clearance ([4]; iv, 5 mg/kg i.v.) | half-life ([4]; iv, 5 mg/kg i.v.) | AUC ([4]; po, 25 mg/kg p.o.) | Cmax ([4]; po, 25 mg/kg p.o.) | Tmax ([4]; po, 25 mg/kg p.o.) | bioavailability ([4]; po) | Tmax [5, 7] | Vd [5, 7] | half-life [5, 7] | AUC [5, 8] | Cmax [5, 9] | Tmax [5, 10] | bioavailability [5, 11] | AUC [5, 12] | also measured |
| --- | --- | --- | --- | --- | --- | --- | --- | --- | --- | --- | --- | --- | --- | --- | --- | --- | --- | --- | --- | --- | --- |
| Cc1ncc(C(=O)N[C@@H](COC(F)F)C(=O)N[C@@H](COC(F)F)C(=O)N[C@@H](Cc2ccccc2)C(=O)[C@@]2(C)CO2)s1 [FV-162] | Over 80% | 200 mg/kg | 111 ng·h/mL | 268 ng/mL | 5 min | 96 L/kg | 702 mL/min/kg | 95 min | 51.9 ng·h/mL | 21 ng/mL | 60 min | 10% | 5 min | 20 L/kg | 68 min | 403 ng·h/mL | 392 ng/mL | 15 min | 14% | 451 ng·h/mL | tumor burden compared with vehicle control ([3]; 30 mg/kg daily by oral gavage): significantly reduced tumor burden; tumor burden compared with vehicle control ([3]; 100 mg/kg daily by oral gavage): significantly reduced tumor burden; tumor growth reduction compared with ONX-0912 (30 mg/kg) ([3]; 100 mg/kg daily, by 27 days after inoculation, P<0.05): greater reduction in tumor growth; Cmax [5, 13]: 615 ng/mL; AUC ([5]; 40 mg/kg p.o.): 27 073 min × ng/ml; primary myeloma cells killed ([6]; concentrations ⩽0.1 μM, 48 h, n=8 patients): At least 80% |
| COC[C@H](NC(=O)c1cnc(C)s1)C(=O)N[C@@H](COC)C(=O)N[C@@H](Cc1ccccc1)C(=O)[C@@]1(C)CO1 [ONX-0912, reference compound] | 56% | 40 mg/kg | 54.1 ng·h/mL | 187 ng/mL | 5 min | 48 L/kg | 1490 mL/min/kg | 22 min | 8.55 ng·h/mL | 38 ng/mL | 5 min | 3% | 5 min | 4 L/kg | 10 min | 301 ng·h/mL | 1090 ng/mL | 5 min | 16% | 377 ng·h/mL | tumor burden compared with vehicle control ([3]; 30 mg/kg twice weekly by oral gavage): significantly reduced tumor burden; clearance [5, 7]: 273 mL/min/kg; Cmax [5, 13]: 1270 ng/mL; AUC ([5]; 40 mg/kg p.o.): 22 627 min × ng/ml; induction of death in primary myeloma cells ([6]; similar concentrations as FV-162, 48 h): less effective at inducing death in primary myeloma cells |
